Experiments:
[1] = molecular target: T1, human M1 receptor (hCHRM1) (Homo sapiens, UniProt P11229); assay: Measurement of M1 receptor positive allosteric modulator (M1PAM) activity (IP1 HTRF, in presence of EC20 acetylcholine); type: cell-based; settings: CHO-K1 cells stably expressing hCHRM1; acetylcholine at EC20 concentration; IP1 readout
T1 construct: expressed in transfected cells
T1 sequence (P11229 1-460): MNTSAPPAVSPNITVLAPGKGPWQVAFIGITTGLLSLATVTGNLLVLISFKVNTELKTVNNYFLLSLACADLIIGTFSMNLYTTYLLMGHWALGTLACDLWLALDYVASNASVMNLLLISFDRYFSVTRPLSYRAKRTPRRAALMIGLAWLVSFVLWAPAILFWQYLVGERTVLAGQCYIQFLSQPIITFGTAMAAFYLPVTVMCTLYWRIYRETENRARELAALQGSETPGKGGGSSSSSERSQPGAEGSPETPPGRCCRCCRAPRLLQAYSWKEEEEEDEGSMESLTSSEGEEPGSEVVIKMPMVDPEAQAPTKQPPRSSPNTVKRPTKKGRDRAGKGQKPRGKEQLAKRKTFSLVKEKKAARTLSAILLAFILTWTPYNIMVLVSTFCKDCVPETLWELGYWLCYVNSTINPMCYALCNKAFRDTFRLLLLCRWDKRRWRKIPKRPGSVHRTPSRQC
Protocol: Measurement of M1 Receptor Positive Allosteric Modulator (M1PAM) Activity
The activity of a test compound in the presence of acetylcholine at an EC20 concentration affording about 20% action of the maximum activity was measured as PAM activity.
The method therefor is as follows. To a 384-well white plate (Greiner) was added 4 μL of the test compound diluted with IP1 Stimulation buffer (CisBio) containing 0.1% fatty acid-free BSA containing 80 nM acetylcholine. Freeze stock of CHO-K1 cells stably expressing human M1 receptor (hCHRM1) was prepared with IP1 Stimulation buffer (CisBio) containing 0.1% fatty acid-free BSA, 4 μL thereof was added (10,000 cells/well) and the mixture was cultured in a 5% CO2 incubator at 37° C. for 1 hr. 4 μL of a solution (CisBio) containing IP1-d2 and Anti-IP1-cryptate Tb conjugate was added, the mixture was incubated at room temperature for 1 hr, and the time-resolved fluorescence signal was measured on an Envision plate reader (PerkinElmer). The activity (%) of the test compound was calculated by defining the value when acetylcholine was added at the final concentration of 20 μM as 100% and the value when DMSO was added instead of the test compound under acetylcholine-free conditions as 0%, and the EC50 value was calculated as a value of 50% of the concentration dependence curve of the test compound.

[2] = Rat PK test (cassette dosing); type: in vivo; settings: male SD rats, plasma; for clearance / MRT: intravenous 0.1 mg/kg, 10 compounds cassette; for clearance: read-out: CL total (total clearance) (converted); for MRT: read-out: MRT iv (mean residence time, intravenous administration); for Tmax: oral administration 1 mg/kg, 5 compounds cassette, read-out: Tmax (time to reach maximum plasma concentration)
Protocol: As the rat, 8-week-old male SD rats (Japan SLC, Inc.) were used. They were fed on a solid commercially available diet (CE-2, CLEA Japan, Inc.) and allowed to freely ingest tap water as the drinking water. An intravenous administration solution for the rats was prepared by weighing a test compound, dissolving same in dimethylacetamide (DMA) (Wako Pure Chemical Industries, Ltd.), adding the same volume of 1,3-butanediol (Wako Pure Chemical Industries, Ltd.) and mixing by stirring to give a DMA:1,3-butanediol (1:1, v/v) solution. An oral administration solution was prepared by weighing a test compound, pulverizing same in an agate mortar, and gradually adding 0.5 w/v % aqueous methylcellulose solution to give a suspension. For intravenous administration, the solution was administered into femoral vein of the rats at 0.1 mg/0.5 mL/kg (salt converted to free form). For oral administration, the suspension was administered to the rats at 1 mg/5 mL/kg (salt converted to free form). The cassette dosing method was used for the both administration routes, and the test compound was administered in the following manner.
Compound of Example 1 (intravenous: 10 compounds cassette administration, oral: 5 compounds cassette administration)
Compound of Example 27 (intravenous: 10 compounds cassette administration, oral: 5 compounds cassette administration)
Compound of Example 28 (intravenous: 10 compounds cassette administration, oral: 5 compounds cassette administration)
Compound of Example 29 (intravenous: 10 compounds cassette administration, oral: 5 compounds cassette administration)
In the case of intravenous administration, blood samples were collected from the tail vein at 5, 10, 15, 30 min, 1, 2, 4, 8 hr after administration, an anticoagulation treatment with heparin sodium (Shimizu Pharmaceutical Co., Ltd.) was performed, and plasma was collected after centrifugation and subjected to the measurement of drug concentration. In the case of oral administration, blood samples were collected from the tail vein at 15, 30 min, 1, 2, 4, 8 hr after administration, an anticoagulation treatment with heparin sodium was performed, and plasma was collected after centrifugation and subjected to the measurement of drug concentration.
All drug concentrations were measured by LC-MS/MS analysis. For a pharmacokinetics test, the plasma (50 μL) was placed in a tube, acetonitrile (150 μL) containing internal standard solution was added and they were mixed on a vortex mixer. Thereafter, the mixture was centrifuged (5000 rpm, 5 min, 4° C.). The supernatant (60 μL) after centrifugation was added to 10 mmol/L ammonium formate (160 μL) added earlier and mixed therewith. This sample was injected to LC/MS/MS. The HPLC system used was Shimadzu LC-20A (Shimadzu Corporation), the column used was Unison UK-C18 HT (3.0 μm, 2.0×20 mm, Imtakt) at 50° C., and 10 mmol/L ammonium formate, 0.2% formic acid as mobile phase A and acetonitrile, 0.2% formic acid as mobile phase B were fed each at a flow rate of 1.2 mL/min under gradient conditions of (B concentration: 0 min→0.1 min, 5%, 0.1→0.75 min, 5-99%, 0.75→1.15 min, 99%, 1.15→1.16 min, 5%, 1.16→1.5 min, 5%). MS/MS used was AB Sciex TQ5500-MPX (Applied Biosystems).
Tmax: time to reach maximum plasma concentration
iv: intravenous administration
CL total: total clearance

[3] = test system: Male SD rats; assay: Rat defecation experiment; type: in vivo; settings: oral, mean±standard error
Protocol: Rat Defecation Experiment
Male SD rats (5-6 weeks old) were used after an acclimation period for about 1 week. A test drug (1 mg/kg or 3 mg/kg) was suspended in 0.5% methylcellulose solution and orally administered at a volume of 5 mL/kg, and the number of feces 2 hr later was counted. Only 0.5% methylcellulose was administered to a solvent administration group.

Row | SMILES | EC50 [1] [nM] | clearance [2] [mL/min/kg] | MRT [2] [min] | Tmax [2] [min] | number of feces 2 hr later ([3]; 1 mg/kg) | number of feces 2 hr later ([3]; 3 mg/kg)
1 | Cc1c(Cc2ccc(-c3cn(C)nn3)cc2)cc(C(=O)N[C@H]2CCOC[C@@H]2O)c2c1CCO2 [Example 1, 1,5-anhydro-2,3-dideoxy-3-[(4-methyl-5-{[4-(1-methyl-1H-1,2,3-triazol-4-yl)phenyl]methyl}-2,3-dihydro-1-benzofuran-7-carbonyl)amino]-L-threo-pentitol] | 7.9 | 3.08 | 108 | 60 | – | –
2 | COCCNC(=O)c1ccc(Cc2cc(C(=O)N[C@H]3CCOC[C@@H]3O)c3c(c2C)CCO3)cc1F [Example 27, 1,5-anhydro-2,3-dideoxy-3-{[5-({3-fluoro-4-[(2-methoxyethyl)carbamoyl]phenyl}methyl)-4-methyl-2,3-dihydro-1-benzofuran-7-carbonyl]amino}-L-threo-pentitol] | 14 | 19.6 | 42 | 60 | – | –
3 | Cc1c(Cc2ccc(C(=O)NCC(=O)N(C)C)c(F)c2)cc(C(=O)N[C@H]2CCOC[C@@H]2O)c2c1CCO2 [Example 28, 1,5-anhydro-2,3-dideoxy-3-({5-[(4-{[2-(dimethylamino)-2-oxoethyl]carbamoyl}-3-fluorophenyl)methyl]-4-methyl-2,3-dihydro-1-benzofuran-7-carbonyl}amino)-L-threo-pentitol] | 8.6 | 18.9 | 36 | 48 | 8.0 ± 1.0 | 8.1 ± 1.4
4 | Cc1c(Cc2ccc(C(=O)NC[C@H]3CCCO3)c(F)c2)cc(C(=O)N[C@H]2CCOC[C@@H]2O)c2c1CCO2 [Example 29, 1,5-anhydro-2,3-dideoxy-3-[(5-{[3-fluoro-4-({[(2R)-oxolan-2-yl]methyl}carbamoyl)phenyl]methyl}-4-methyl-2,3-dihydro-1-benzofuran-7-carbonyl)amino]-L-threo-pentitol] | 11 | 27.5 | 36 | 30 | 5.0 ± 0.8 | 9.0 ± 0.7

Source: patent US11970483B2, “Heterocyclic compound” (Takeda Pharmaceutical Company Limited, priority 2018, dated 2024)
